Like-named read-outs stand apart in the source and are kept apart here. Non-standard residues stand in square brackets, D forms with d. No end group written: not given here. pY = N[C@@H](Cc1ccc(OP(=O)(O)O)cc1)C(=O)O
How the values were obtained:
[1] = target: T1, Stat1:Stat3 DNA-binding activity (Mus musculus, UniProt P42227); test: EMSA of Stat1:Stat3 DNA-binding activity in nuclear extracts of EGF-stimulated NIH3T3/hEGFR; format: biochemical; settings: Fig. 1C, hSIE probe, 30 min
T1 construct: endogenous in cells; host or cells: EGF-stimulated NIH3T3/hEGFR fibroblasts (nuclear extract)
T1 sequence (P42227 2-770 limits assumed, one chain of several): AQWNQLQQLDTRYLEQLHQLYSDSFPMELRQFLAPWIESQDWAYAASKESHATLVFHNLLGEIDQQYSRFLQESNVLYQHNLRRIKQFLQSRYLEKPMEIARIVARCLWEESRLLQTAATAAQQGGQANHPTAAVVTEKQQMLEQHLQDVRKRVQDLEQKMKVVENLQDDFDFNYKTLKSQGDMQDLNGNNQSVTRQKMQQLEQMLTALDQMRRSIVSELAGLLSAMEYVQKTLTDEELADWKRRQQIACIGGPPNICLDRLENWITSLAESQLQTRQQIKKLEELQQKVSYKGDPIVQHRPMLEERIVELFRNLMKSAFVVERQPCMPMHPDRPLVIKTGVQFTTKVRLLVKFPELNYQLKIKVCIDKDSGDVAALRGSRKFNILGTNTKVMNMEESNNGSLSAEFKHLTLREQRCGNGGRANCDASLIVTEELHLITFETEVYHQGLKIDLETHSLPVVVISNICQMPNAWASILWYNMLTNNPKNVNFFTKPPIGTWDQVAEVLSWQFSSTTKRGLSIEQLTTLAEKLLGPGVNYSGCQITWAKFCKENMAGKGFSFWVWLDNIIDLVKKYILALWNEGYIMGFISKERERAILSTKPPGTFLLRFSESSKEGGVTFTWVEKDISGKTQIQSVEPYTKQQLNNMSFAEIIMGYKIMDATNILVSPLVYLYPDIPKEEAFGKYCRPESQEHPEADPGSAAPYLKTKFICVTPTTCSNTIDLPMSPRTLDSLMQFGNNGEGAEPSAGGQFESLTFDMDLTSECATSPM
Protocol: (§1) Details are presented in Supplementary Information, “Methods”. […]
(§2) min, prior to incubation with the radiolabeled probe for 30 min at 30 °C and subjecting to EMSA analysis.
(§3) In another case, the nuclear extract was pre-incubated with the radiolabeled probe for 30 min at 30 °C prior to incubation with increasing concentration of H182 at room temperature for 30 min and subjecting to EMSA analysis. Bands corresponding to Stats DNA- binding activities were scanned and quantified using ImageJ and plotted as a percentage of control (vehicle) against the concentration of the inhibitor, from which the IC50 values were derived .

MDA-MB-231 cells = test: CyQuant viable cell number assay, MDA-MB-231; format: cell-based, human
Protocol: (§4) CyQuant assay was performed to evaluate compounds as previously reported. Details are presented in Supplementary Information, “Methods”. […]
(§5) 1.2.6. Cell viability assays
(§6) CyQuant assay was performed to evaluate compounds as previously reported [1 -3] . Briefly, cells (5 x 10^3 per well, 100 µl) in culture in 96-well plates were treated once with 0 -10 µM concentrations of H120, H105, […]
(§7) concentration of H182 for 6 h and then treated with 0- 100 nM docetaxel or 0-20 µM cisplatin for a total of 72 h. Viable cell numbers were assessed by a CyQuant cell proliferation kit according to the manufacturer’s instructions (Thermo/Life Technologies Corp, Carlsbad, CA). Viable cell numbers were normalized to that of DMSO (control)-treated samples. […]

[2] = target: T2, Stat1:Stat1 DNA-binding activity (Mus musculus, UniProt P42225); test: EMSA of Stat1:Stat1 DNA-binding activity in nuclear extracts of EGF-stimulated NIH3T3/hEGFR; format: biochemical; settings: Fig. 1C, 30 min
T2 construct: endogenous in cells; host or cells: EGF-stimulated NIH3T3/hEGFR fibroblasts (nuclear extract)
T2 sequence (P42225 2-749 limits assumed): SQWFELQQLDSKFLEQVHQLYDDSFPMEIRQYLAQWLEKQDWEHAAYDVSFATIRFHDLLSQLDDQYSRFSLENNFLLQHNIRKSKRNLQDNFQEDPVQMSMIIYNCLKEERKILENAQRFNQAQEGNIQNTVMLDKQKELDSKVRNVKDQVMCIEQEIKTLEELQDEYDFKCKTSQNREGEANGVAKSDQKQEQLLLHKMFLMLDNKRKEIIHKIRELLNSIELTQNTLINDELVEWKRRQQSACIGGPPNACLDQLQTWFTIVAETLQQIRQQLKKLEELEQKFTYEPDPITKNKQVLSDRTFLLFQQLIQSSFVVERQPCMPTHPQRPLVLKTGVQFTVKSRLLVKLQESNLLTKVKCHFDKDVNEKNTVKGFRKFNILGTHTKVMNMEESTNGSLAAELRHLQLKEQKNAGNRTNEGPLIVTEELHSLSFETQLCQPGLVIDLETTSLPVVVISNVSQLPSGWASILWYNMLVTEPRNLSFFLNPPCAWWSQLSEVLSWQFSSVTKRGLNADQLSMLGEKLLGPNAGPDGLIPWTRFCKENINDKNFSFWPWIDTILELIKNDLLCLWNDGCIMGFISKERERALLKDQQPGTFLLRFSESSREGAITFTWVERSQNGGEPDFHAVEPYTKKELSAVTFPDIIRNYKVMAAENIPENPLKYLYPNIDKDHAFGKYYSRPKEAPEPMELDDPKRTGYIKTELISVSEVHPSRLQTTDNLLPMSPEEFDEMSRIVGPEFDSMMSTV
Protocol: (§8) These studies were carried out as previously described using the ^32P-labeled oligonucleotide probes, hSIE (high affinity sis-inducible element from the c-fos gene, m67 variant, 5^′-[…]) that binds Stat1 and Stat3 [11, 12] and the mammary gland factor element (MGFe) from the bovine β–casein gene promoter (sense strand, 5^′-[…]) that binds Stat5 and Stat1 [11, 12]. Details are presented in Supplementary Information, “Methods”. […]
as §2, §3

[3] = target: Stat5:Stat5 DNA-binding activity; test: EMSA of Stat5:Stat5 DNA-binding activity in nuclear extracts of EGF-stimulated NIH3T3/hEGFR; format: biochemical, mouse; settings: Fig. 1C, MGFe probe, 30 min
Protocol: as §8, §2, §3

MDA-MB-468 cells = test: CyQuant viable cell number assay, MDA-MB-468; format: cell-based, human; settings: Homo sapiens, MDA-MB-468, 72 h, read-out: IC50 viable cell numbers, MDA-MB-468
Protocol: as §4, §5, §6, §7

[4] = target: T3, Stat3:Stat3 DNA-binding activity (Mus musculus, UniProt P42227); test: EMSA of Stat3:Stat3 DNA-binding activity in nuclear extracts; format: biochemical; settings: for Stat3-inhibitory potency on replacing the para-fluorine: EMSA
T3 construct: endogenous in cells; host or cells: NIH3T3/v-Src fibroblasts; EGF-stimulated NIH3T3/hEGFR fibroblasts (nuclear extracts)
T3 sequence (P42227 2-770 limits assumed): as the sequence (P42227 2-770 limits assumed, one chain of several) above
Protocol: as §1, §2, §3

[5] = test system: MDA-MB-231 tumor xenografts; test: Subcutaneous MDA-MB-231 xenografts in athymic nude mice; format: in vivo
Protocol: Mice were housed in specific pathogen-free conditions in the animal facility. All animal experiments were conducted in accordance with the recommendations in the Guide for the Care and Use of Laboratory Animals on a protocol approved by the Institutional Animal Care and Use Committee (IACUC). Subcutaneous xenograft studies were performed as previously reported. Five-week-old female athymic nude mice were purchased from Envigo (Indianapolis, IN) or Charles River (Wilmington, MA) and maintained in the institutional animal facilities approved by the American Association for Accreditation of Laboratory Animal Care. […] Tumor sizes were monitored every 3–4 days, measured with calipers, and converted to tumor volume, V, according to the formula V = 0.52 × a^2 × b, where a, smallest superficial diameter, and b, largest superficial diameter. For each treatment group, the tumor volumes for each set of measurements were statistically analyzed relative to the control (DMSO-treated; 70% DMSO with sterile PBS) group.
Constitutively-active Stat3 promotes primary tumor development and the progression to therapy resistance. We proceeded to evaluate the in vivo antitumor efficacy against tumor growth in both human xenograft and mouse syngeneic models of TNBC. In four separate studies, we tested the efficacy of H182, H278 (HCl salt of H182), and H120. For these xenografts, the human breast cancer, MDA-MB-231 cells were injected subcutaneously into athymic nude mice. When tumors were palpable (80–120 mm^3), mice were grouped so that the mean tumor sizes were identical between groups and treated as follows: A) intraperitoneal (IP) injections of H182 at 10 mg/kg every other day for 33 days; B) oral gavage of H182 every day at 5 mg/kg for 20 days, and then increased to 20 mg/kg for additional 12 days; and C) oral gavage of H120 at 20 mg/kg, daily for 14 days, and then increased to 30 mg/kg, daily for additional 14 days.

[6] = target: SH2 domain of pure recombinant Stat3 (Homo sapiens, UniProt P40763); test: Stat3 fluorescence polarization (FP) assay; format: binding; settings: 0–10 μM, 5-carboxyfluorescein-GpYLPQTV-NH2 probe
SH2 domain of pure recombinant Stat3, sequence (P40763 whole entry, the tested form may be a part): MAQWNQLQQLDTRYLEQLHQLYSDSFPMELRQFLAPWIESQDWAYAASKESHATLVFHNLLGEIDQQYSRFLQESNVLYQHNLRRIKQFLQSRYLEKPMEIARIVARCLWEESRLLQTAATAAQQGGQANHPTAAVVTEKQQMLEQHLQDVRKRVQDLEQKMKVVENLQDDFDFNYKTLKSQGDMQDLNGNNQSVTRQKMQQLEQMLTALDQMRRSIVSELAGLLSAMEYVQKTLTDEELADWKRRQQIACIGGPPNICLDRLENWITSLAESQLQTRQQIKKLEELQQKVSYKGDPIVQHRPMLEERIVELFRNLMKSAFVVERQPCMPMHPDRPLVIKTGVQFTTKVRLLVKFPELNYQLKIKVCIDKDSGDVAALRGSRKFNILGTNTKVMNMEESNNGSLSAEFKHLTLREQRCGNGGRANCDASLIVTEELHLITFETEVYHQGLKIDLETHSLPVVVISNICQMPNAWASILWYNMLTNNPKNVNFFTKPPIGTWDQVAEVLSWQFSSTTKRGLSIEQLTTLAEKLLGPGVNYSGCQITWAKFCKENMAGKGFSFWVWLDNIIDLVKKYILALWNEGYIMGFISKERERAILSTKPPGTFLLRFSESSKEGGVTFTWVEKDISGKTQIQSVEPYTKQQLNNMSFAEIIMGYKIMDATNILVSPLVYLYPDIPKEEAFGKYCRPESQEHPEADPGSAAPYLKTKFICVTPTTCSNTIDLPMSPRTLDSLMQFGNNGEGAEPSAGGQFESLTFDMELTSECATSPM
Protocol: Details are presented in Supplementary Information, “Methods”.
The Stat3:azetidine compound interaction was investigated further by focusing on how the compounds might interfere with Stat3 dimerization (Stat3:Stat3), which occurs via pTyr peptide:SH2 domain interaction. […]
confocal microscope (Stellaris 8-STED Super -resolution , Germany) with a 60x oil lens and images were processed by ImageJ software.
1.2.9. Fluorescence polarization assay (FP)
These studies were conducted as previously reported using the labeled phosphopeptide, 5-carboxyfluorescein GpYLPQTV-NH 2 (where pY represents phospho-Tyr) as probe and purified recombinant Stat3, with some modifications. […]
10 µM of unlabeled GpYLPQTV-NH 2 (positive control) or H182 at 30 °C for 30 min in the indicated assay buffer conditions, prior to the addition of the labeled probe at 10 nM final concentration and incubated for 30 min at room temperature, and thereafter reading the FP signal at 10, 30, and 60 min using the SpectraMax ID5 (Molecular Devices, San Jose, CA), with the set gain adjustment at 35 mP. In some cases, the recombinant His-Stat3 was pre-incubated with the unlabeled GpYLPQTV-NH 2 or H182 at 0-10 µM for 10 min or at 0-50 µM for 30 min prior to incubation with the labeled probe, and thereafter reading the FP signal at 10, 30, or 60 min using the SpectraMax ID5, with the set gain adjustment at 35 mP.
1.2.10. […]

[7] = Homo sapiens, MDA-MB-231, read-out: IC50 viable cell numbers, MDA-MB-231, CyQuant, 72 h
[8] = first Stat1:Stat1 value listed (hSIE probe)
[9] = second Stat1:Stat1 value listed (MGFe probe)
[10] = Fig. 1C, extracts of EGF-stimulated NIH3T3/hEGFR, hSIE probe, 30 min, read-out: IC50 Stat3:Stat3
[11] = range over the named compounds and incubation times, read-out: IC50 Stat3 DNA-binding activity in vitro (summary range)
[12] = Table 1, replacement of p-fluorine (R1), read-out: EMSA IC50

Compound | Stat3-inhibitory potency on replacing the para-fluorine [4] | IC50 [4, 12] [µM] | IC50 [1] [µM] | IC50 (MDA-MB-231 cells; [7]) [µM] | IC50 [2, 8] [µM] | IC50 [2, 9] [µM] | IC50 [3] [µM] | IC50 (MDA-MB-468 cells) [µM] | IC50 [4, 10] [µM] | IC50 [4, 11] [µM] | further results
O=C(NO)c1ccc(N(Cc2ccc(C3CCCCC3)cc2)C(=O)[C@H]2CCN2S(=O)(=O)c2c(F)c(F)c(F)c(F)c2F)c(F)c1 [Compound H105] | – | – | 8.3 | 2.6 to 3.6 | 15.8 | > 20 | 20 | 2.6 to 3.6 | 1.8 | 1.75 to 2.07 | –
O=C(NO)c1ccc(N(Cc2ccc(C3CCOCC3)cc2)C(=O)[C@H]2CCN2S(=O)(=O)c2c(F)c(F)c(F)c(F)c2F)cc1O [Compound H120] | – | – | 7.2 | 2.6 to 3.6 | > 20 | > 20 | > 20 | 2.6 to 3.6 | 2.1 | 1.75 to 2.07 | Tumor growth, MDA-MB-231 xenografts ([5]; H120 oral gavage daily 20 mg/kg for 14 days, then 30 mg/kg for 14 days): significant tumor growth inhibition; Body weights and obvious signs of toxicity ([5]; the three xenograft studies): No notable changes
N.N.[Cl][Pt][Cl] [cisplatin, reference compound] | – | – | – | – | – | – | – | – | – | – | IC50 (MDA-MB-231 cells; MDA-MB-231, DMSO or 1 μM H182 pre-treatment 6 h, then docetaxel or cisplatin, total 72 h, read-out: IC50 of chemotherapeutic agent alone or with H182): 7 µM
GpYLPQTV-NH2 (G[pY]LPQTV-NH2) [reference compound] | – | – | – | – | – | – | – | – | – | – | Effect on FP signal [6]: dose-dependent reduction of the FP signal down to the baseline of 45–50 mP

Second part, led by results:

Stat3-inhibitory potency on replacing the para-fluorine [4] | IC50 [4, 12] [µM] | Compound | IC50 [1] [µM] | IC50 (MDA-MB-231 cells; [7]) [µM] | IC50 [2, 8] [µM] | IC50 [2, 9] [µM] | IC50 [3] [µM] | IC50 (MDA-MB-468 cells) [µM] | IC50 [4, 10] [µM] | IC50 [4, 11] [µM] | further results
loss of Stat3-inhibitory potency | > 30 | O=C(O)c1ccc(N(Cc2cnc(C3CCCCC3)cn2)C(=O)[C@H]2CCN2S(=O)(=O)c2c(F)c(F)cc(F)c2F)cc1O [Compound H176] | – | – | – | – | – | – | – | – | –
loss of Stat3-inhibitory potency | > 30 | O=C(O)c1ccc(N(Cc2cnc(C3CCCCC3)cn2)C(=O)[C@H]2CCN2S(=O)(=O)c2c(F)c(F)c(Cl)c(F)c2F)cc1O [Compound H186] | – | – | – | – | – | – | – | – | –
